Source: patent publication US20060014704A1, “Compounds and their preparation for the treatment of Alzheimer's disease by inhibiting beta-amyloid peptide production” (priority 2004, published 2006)
“Also recorded” adds a separate entry of the source. Like-named read-outs stand apart in the source and are kept apart here. One block for each molecule: values may come before it.

Columns and labels:
γ-secretase = γ-secretase (Homo sapiens, UniProt P49768); assay: Cell-free γ-secretase assay (CHAPSO-solubilized membrane fractions, recombinant substrates, Aβ ELISA); format: biochemical
Method: (A) CHAPSO-solubilized membrane fractions were incubated with recombinant γ-secretase substrates together with the indicated compounds (at 100 μM) and the levels of Aβ42 and Aβ40 were determined by ELISA as described (27-29). (B) Dose-response of Aβ40 and Aβ42-lowering activity of Rk1 and (20S)Rg3 in a cell-free γ-secretase assay.
Next, the inhibitory effects of Rk1 and (20S)Rg3 on Aβ generation in an in vitro γ-secretase assay was studied. […] In contrast, naproxen, an NSAID without Aβ42-lowering activity, had no effects on Aβ42 production (FIG. 15A).

[1] = test system: Aβ40 and Aβ42 production, CHO cells stably transfected with human APP695; assay: Secreted Aβ40/Aβ42 ELISA in CHO cells expressing human APP (CHO-APP cells); format: cell-based, Chinese hamster; set-up: key to Aβ42-lowering activity: Aβ42-lowering activity (“Yes”); no profound effects (“No”); non-determined (“ND”); Ginsenosides that affected cell viability are indicated as “Cytotoxic.”; conditions: for preference for Aβ42 vs. Aβ40 in cell-based assay: FIG. 6 / FIG. 12B; for production of Aβ42 in cells: general statement; for Aβ42-lowering activity: summary of Tables 1-3
Method: The CHO cells were treated with the indicated compounds (at 50 μg/ml) for 8 hrs. Aβ42 levels in the medium were measured by ELISA and normalized to intracellular full-length APP.
The potential effects of ginsenosides and their analogues in treating AD were examined. First, a number of ginsenosides were screened based on their effects on Aβ generation. The effects of various ginsenosides on Aβ (e.g., Aβ40 and Aβ42) production was initially accessed by incubating the Chinese hamster ovary (CHO) cells expressing human APP(CHO-APP cells) with each ginsenoside purified from unprocessed ginseng (known as “white ginseng”). These representative ginsenosides included Rb1, Rb2, Rc, Rd, Re, Re, Rg1 and Rg2 and differ in their side chains and sugar moieties.
After 8 hours of incubation, the media were collected and the levels of secreted Aβ40 and Aβ42 were determined by ELISA.

[2] = test system: Aβ40 and Aβ42 production, CHO-APP/PS1 cells; assay: Secreted Aβ ELISA in CHO-APP/PS1 cells (wild-type PS1); format: cell-based, Chinese hamster; conditions: for potency of Aβ42-reducing activity (rank) / secretion of Aβ42: 50 μM, 8 hrs, FIG. 11; for secretion of Aβ42: heat-processing derived ginsenosides
Method: (§1) The effects of Rg5 on the Aβ42 generation were much smaller as compared to Rgk351 and Rk1.
(§2) FIG. 10 depicts the effects of native ginsenosides on Aβ42 production. CHO cells stably transfected with human APP695 together with either wild-type (A, CHO-APP/PS1 cells) or ΔE9 FAD mutant (B, CHO-APP/ΔE9PS1 cells) forms of PS1 were used. Cells were treated with the indicated compounds (at 50 μM) for 8 hrs. Levels of secreted Aβ40 and Aβ42 in the medium were determined by ELISA and normalized to intracellular full-length APP. In CHO-APP/PS1 cells, average Aβ amounts in control samples were 320 pM for Aβ40 and 79 pM for Aβ42. The relative levels of Aβ and Aβ42 were normalized to values obtained from non-treated and vehicle-treated cells and are shown as % to control+s.d.). One of three representative experiments are shown.
(§3) CHO-APP/PS1 (A) and CHO-APP/ΔE9PS1 (B) cells were treated with the indicated compounds at 50 μM for 8 hrs and the levels of secreted Aβ40 and Aβ42 were determined as described in FIG. 1. […] The PS1-ΔE9 FAD mutation diminished the Aβ42 response to Rk1 treatment (B).

[3] = test system: Aβ40 and Aβ42 secretion, primary embryonic cortical neurons; assay: Aβ secretion in primary embryonic cortical neurons derived from Tg2576 transgenic mice; format: cell-based, mouse
Source text: Treatment of Rk1 and Rg3 decreased the level of secreted Aβ40 and Aβ42.

[4] = test system: Aβ42 production, CHO-APP/ΔE9PS1 cells; assay: Secreted Aβ ELISA in CHO cells co-expressing human APP and FAD mutant PS1 (ΔE9, L286V); format: cell-based, Chinese hamster; conditions: 50 μM, 8 hrs, FIG. 11B vs 11A
Method: as §1, §2, §3

[5] = test system: Aβ42 production in mammalian cells; conditions: Tae-Wan Kim et al., patent application pending; cited from earlier work
[6] = test system: Aβ species, CHO-APP cells; assay: Mass spectrometric analysis of Aβ species produced from CHO-APP cells; format: cell-based, Chinese hamster; conditions: mass spectrometry, vs DMSO
Method: Note that treatment leads to a decrease in Aβ42 species (1-42), and elevation in both Aβ37 (1-37) and Aβ38 (1-38). Mass spectrometric analysis of Aβ species were performed as previously described (Wang R, Sweeny D, Gandy S E, Sisodia S S. The profile of soluble amyloid β-protein in cultured cell media. J. Bio. Chem. 1996; 271: 31894-31902).

[7] = test system: full-length APP and APP C-terminal fragments, CHO-APP cells; assay: Western blot analysis of APP processing in CHO-APP cells; format: cell-based, Chinese hamster; conditions: cell lysates
Source text: (§4) FIG. 13. depicts an analysis of APP processing after Rk1 treatment. Steady-state levels of full-length APP and APP C-terminal fragments (APP-CTFs) were examined by Western blot analysis using anti-R1 antibody. […] Correlated Aβ42 levels for each sample are shown in the bottom panel.

[8] = test system: full-length APP and APP C-terminal fragments, Neuro2a-APPsw cells; assay: Western blot analysis of APP processing in neuro2a cells expressing APPsw; format: cell-based, mouse; conditions: neuro2a cells expressing APPsw
Source text: as §4

cell viability = assay: Cell viability of treated cells; format: cell-based; set-up: key to affected cell viability (Cytotoxic): Aβ42-lowering activity (“Yes”); no profound effects (“No”); non-determined (“ND”); Ginsenosides that affected cell viability are indicated as “Cytotoxic.”
Method: as §3
Tables 1-3 Structure of ginsenosides utilized in the study and their effects on Aβ42 generation. They differ at the two or three side chains attached to the common triterpene backbone known as dammarane. The common structure skeleton for each group of ginsenosides is shown in the top panel. Ginsenosides that harbor Aβ42-lowering activity are indicated in the far right column of the tables: Aβ42-lowering activity (“Yes”), no profound effects (“No”), and non-determined (“ND”). Ginsenosides that affected cell viability are indicated as “Cytotoxic.” Abbreviation for carbohydrates are as follows: Glc, D-glucopyranosyl; Ara (pyr), L-arabinopyranosyl; Ara (fur), L-arabinofuranyosyl; Rha, L-rhamnopyranosyl.
Steaming ginseng at high temperature gave rise to additional ginsenosides with enhanced pharmacological activity, including (20S)Rg3, Rk1 and Rg5 (22-25). […] Aβ40 levels were not changed by treatment with any of the ginsenosides tested. The potency of Aβ42-lowering activity was highest with Rk1 and (20S)Rg3. […] These studies provide a structure-activity relationship between the chemical structures of ginsenosides and Aβ42-lowering activity, further providing the basis for designing additional Aβ42-lowering analogues as well as for defining a class of compounds that harbor Aβ42-lowering activity.

Aβ generation in a cell-free γ-secretase assay (γ-secretase; FIG. 15): inhibits Aβ generation | IC50 (γ-secretase; cell-free γ-secretase assay, FIG. 15B, read-out: IC50 for Aβ40): 27 ± 4 µM | IC50 (γ-secretase; cell-free γ-secretase assay, FIG. 15B, read-out: IC50 for Aβ42): 26 ± 7 µM
SMILES: CC(C)=CCCC(C)(O)C1CCC2(C)C1C(O)CC1C3(C)CCC(OC4OC(CO)C(O)C(O)C4OC4OC(CO)C(O)C(O)C4O)C(C)(C)C3CCC12C [(20S)Rg3]
Aβ42 generation in vitro (γ-secretase; cell-free γ-secretase assay, FIG. 15 (100 μM in A)): inhibited both Aβ40 and Aβ42 with a similar potency | Aβ40 generation in vitro (γ-secretase; cell-free γ-secretase assay, FIG. 15B): inhibited both Aβ40 and Aβ42 with a similar potency | preference for Aβ42 vs. Aβ40 in cell-based assay [1]: primarily affect Aβ42 production | production of Aβ42 in cells [1]: lower the production of Aβ42 | potency of Aβ42-reducing activity (rank) [2]: Rk1>/=(20S)Rg3>Rg5>(20R)Rg3; also recorded: highest | secretion of Aβ42 [2]: selectively lowered the secretion of Aβ42 | level of secreted Aβ40 [3]: decreased | level of secreted Aβ42 [3]: decreased | Aβ42-lowering response in PS1 ΔE9 FAD mutant cells compared to PS1 wild-type cells [4]: diminished | production of Aβ42 in mammalian cells [5]: lower the production of Aβ42 | Aβ37 (1-37) [6]: elevation | Aβ38 (1-38) [6]: elevation | Aβ42 species (1-42) [6]: decrease

SMILES: CC(C)=CC/C=C(\C)[C@H]1CC[C@]2(C)[C@@H]1[C@H](O)C[C@@H]1[C@@]3(C)CC[C@H](O[C@@H]4O[C@H](CO)[C@@H](O)[C@H](O)[C@H]4O[C@@H]4O[C@H](CO)[C@@H](O)[C@H](O)[C@H]4O)C(C)(C)[C@@H]3CC[C@]12C [Rg5]
APP C-terminal fragments (γ-secretase substrates), steady-state levels [7]: increased accumulation | full-length APP levels [7]: not affected | generation of Aβ42 (Aβ42 levels in the medium, ELISA, normalized to intracellular full-length APP) ([1]; 50 μg/ml, 8 hrs, FIG. 4): reduce the generation of Aβ42 | Aβ42-lowering effect compared with other agents ([1]; CHO-APP cells): much smaller | preference for Aβ42 vs. Aβ40 in cell-based assay [1]: preferentially reduced Aβ42 (vs. Aβ40) | Aβ42 in the medium, dose-response ([1]; dose-dependent, FIG. 5 / FIG. 12A): reduced Aβ42; also recorded: lower Aβ42 in a dose-dependent manner | production of Aβ42 in cells [1]: lower the production of Aβ42 | Aβ42 production ([1]; overnight treatment, FIG. 12B): reduce Aβ42 production | Aβ42-lowering activity [1]: Yes | potency of Aβ42-reducing activity (rank) [2]: Rk1>/=(20S)Rg3>Rg5>(20R)Rg3; also recorded: less effective | secretion of Aβ42 [2]: selectively lowered the secretion of Aβ42 | effects on Aβ42 generation compared to Rgk351 and Rk1 ([2]; wild-type or FAD mutant presenilin 1, FIG. 8): much smaller | Aβ42-lowering response in PS1 ΔE9 FAD mutant cells compared to PS1 wild-type cells [4]: diminished | production of Aβ42 in mammalian cells [5]: lower the production of Aβ42 | APP C-terminal fragments, steady-state levels [8]: increased accumulation

SMILES: CC(C)=CCC[C@](C)(O)[C@H]1CC[C@]2(C)[C@@H]1[C@H](O)C[C@@H]1[C@@]3(C)CC[C@H](O[C@@H]4O[C@H](CO)[C@@H](O)[C@H](O)[C@H]4O)C(C)(C)[C@@H]3CC[C@]12C [Rh2]
Aβ42-lowering activity [1]: Yes | secretion of Aβ42 [2]: exhibited Aβ42-lowering effects | cell viability (cell viability; 50 μM treatment): partially affected | affected cell viability (Cytotoxic) (cell viability; summary of Tables 1-3): Cytotoxic
